Test results reported in patent publication US20070031514A1, “Use of isoindolinone derivatives as insecticides” (priority 2003, published 2007).

Q: For Cc1cc(C(F)(C(F)(F)F)C(F)(F)F)ccc1N1C(=O)c2cccc(Cl)c2C1NC(C)(C)CS(C)(=O)=O (stereo not shown) [Synthesis Example 2, 4-chloro-3-(2-methanesulfonyl-1,1-dimethylethylamino)-2-[2-methyl-4-(1,2,2,2-tetrafluoro-1-trifluoromethylethyl)phenyl]-2,3-dihydroisoindol-1-one], which melting point is on record?
A: 154 to 156 °C
